Measured values as given in ChEMBL document CHEMBL3885881, “DrugMatrix”.

Species on record: Rattus norvegicus
Assay: DrugMatrix - Regimen: Daily Repeat
Format: toxicity, organism-based, Sprague-Dawley
Parameters: regimen Daily Repeat, gender Male, age 6-8 weeks
Settings: in vivo, po, route oral GAVAGE, vehicle .5 % CMC; for ALANINE AMINOTRANSFERASE / ALBUMIN / ALKALINE PHOSPHATASE / ASPARTATE AMINOTRANSFERASE / BLOOD UREA NITROGEN / CHLORIDE / CHOLESTEROL / CREATINE PHOSPHOKINASE / CREATININE / GLUCOSE / LACTATE DEHYDROGENASE / LIPASE / PHOSPHORUS / POTASSIUM / SODIUM / TOTAL BILIRUBIN / TOTAL PROTEIN / URIC ACID: tissue Plasma
[1] = 0.0007 mg/kg, 2184 h, tissue Blood, dose level Low, time 91 day
[2] = 0.0007 mg/kg, 2184 h, dose level Low, time 91 day
[3] = 0.0007 mg/kg, […], tissue Blood, dose level Low, time 28 day
[4] = 0.0007 mg/kg, […], dose level Low, time 28 day
[5] = 0.001 mg/kg, 72 h, tissue Blood, dose level M1, time 3 day
[6] = 0.001 mg/kg, 72 h, dose level M1, time 3 day
[7] = 0.001 mg/kg, 120 h, tissue Blood, dose level M1, time 5 day
[8] = 0.001 mg/kg, 120 h, dose level M1, time 5 day
[9] = 0.02 mg/kg, 72 h, tissue Blood, dose level High, time 3 day
[10] = 0.02 mg/kg, 72 h, dose level High, time 3 day
[11] = 0.02 mg/kg, 120 h, tissue Blood, dose level High, time 5 day
[12] = 0.02 mg/kg, 120 h, dose level High, time 5 day

Compound: Clc1cc2c(cc1Cl)Oc1cc(Cl)c(Cl)cc1O2 [2,3,7,8-TETRACHLORODIBENZO-P-DIOXIN]
- EOSINOPHIL [1]: 1.12%
- ERYTHROCYTE COUNT [1]: 9.38 x10E6/uL
- HEMATOCRIT [1]: 50.34%
- HEMOGLOBIN [1]: 16.79 G/DL
- LEUKOCYTE COUNT [1]: 13.03 x10E3/uL
- LYMPHOCYTE [1]: 77.67%
- MEAN CORPUSCULAR HEMOGLOBIN [1]: 17.96 pg
- MEAN CORPUSCULAR HEMOGLOBIN CONCENTRATION [1]: 33.34 G/DL
- MEAN CORPUSCULAR VOLUME [1]: 53.81 fL
- MONOCYTE [1]: 2.14%
- NEUTROPHIL [1]: 16.55%
- PLATELET COUNT [1]: 1320.7 x10E3/uL
- ALANINE AMINOTRANSFERASE [2]: 26.9 u/L
- ALBUMIN [2]: 3.75 G/DL
- ALKALINE PHOSPHATASE [2]: 85.3 u/L
- ASPARTATE AMINOTRANSFERASE [2]: 64.6 u/L
- BLOOD UREA NITROGEN [2]: 14.9 mg/dL
- CHLORIDE [2]: 103.1 MEQ/L
- CHOLESTEROL [2]: 55.9 mg/dL
- CREATINE PHOSPHOKINASE [2]: 76.1 u/L
- CREATININE [2]: 0.51 mg/dL
- GLUCOSE [2]: 150.6 mg/dL
- LACTATE DEHYDROGENASE [2]: 36.1 u/L
- LIPASE [2]: 15.1 u/L
- PHOSPHORUS [2]: 7.88 mg/dL
- POTASSIUM [2]: 6.11 MEQ/L
- SODIUM [2]: 151 MEQ/L
- TOTAL BILIRUBIN [2]: 0.2 mg/dL
- TOTAL PROTEIN [2]: 7.13 G/DL
- URIC ACID [2]: 0.79 mg/dL
- ABSOLUTE BASOPHIL [3]: 72 cells/µL
- ABSOLUTE EOSINOPHIL [3]: 54 cells/µL
- ABSOLUTE LYMPHOCYTE [3]: 9720 cells/µL
- ABSOLUTE MONOCYTE [3]: 220 cells/µL
- ABSOLUTE SEGMENTED NEUTROPHIL [3]: 1340 cells/µL
- BASOPHIL [3]: 0.62%
- EOSINOPHIL [3]: 0.5%
- ERYTHROCYTE COUNT [3]: 8.2 x10E6/uL
- HEMATOCRIT [3]: 46.2%
- HEMOGLOBIN [3]: 15.3 G/DL
- LEUKOCYTE COUNT [3]: 11.47 x10E3/uL
- LYMPHOCYTE [3]: 84.6%
- MEAN CORPUSCULAR HEMOGLOBIN [3]: 18.64 pg
- MEAN CORPUSCULAR HEMOGLOBIN CONCENTRATION [3]: 33.1 G/DL
- MEAN CORPUSCULAR VOLUME [3]: 56.34 fL
- MONOCYTE [3]: 1.94%
- NEUTROPHIL [3]: 11.78%
- PLATELET COUNT [3]: 1311.4 x10E3/uL
- ALANINE AMINOTRANSFERASE [4]: 24.8 u/L
- ALBUMIN [4]: 3.58 G/DL
- ALKALINE PHOSPHATASE [4]: 148 u/L
- ASPARTATE AMINOTRANSFERASE [4]: 65.4 u/L
- BLOOD UREA NITROGEN [4]: 10.6 mg/dL
- CHLORIDE [4]: 104 MEQ/L
- CHOLESTEROL [4]: 54.8 mg/dL
- CREATINE PHOSPHOKINASE [4]: 83.2 u/L
- CREATININE [4]: 0.44 mg/dL
- GLUCOSE [4]: 147.6 mg/dL
- LACTATE DEHYDROGENASE [4]: 39.8 u/L
- LIPASE [4]: 39.2 u/L
- PHOSPHORUS [4]: 9.54 mg/dL
- POTASSIUM [4]: 5.96 MEQ/L
- SODIUM [4]: 151.6 MEQ/L
- TOTAL BILIRUBIN [4]: 0.2 mg/dL
- TOTAL PROTEIN [4]: 6.34 G/DL
- URIC ACID [4]: 0.22 mg/dL
- BASOPHIL [5]: 0.47%
- EOSINOPHIL [5]: 0.5%
- ERYTHROCYTE COUNT [5]: 7.09 x10E6/uL
- HEMATOCRIT [5]: 44.53%
- HEMOGLOBIN [5]: 14.13 G/DL
- LEUKOCYTE COUNT [5]: 11.43 x10E3/uL
- LYMPHOCYTE [5]: 82.93%
- MEAN CORPUSCULAR HEMOGLOBIN [5]: 20 pg
- MEAN CORPUSCULAR HEMOGLOBIN CONCENTRATION [5]: 31.8 G/DL
- MEAN CORPUSCULAR VOLUME [5]: 62.87 fL
- MONOCYTE [5]: 2.37%
- NEUTROPHIL [5]: 12.8%
- PLATELET COUNT [5]: 1540.67 x10E3/uL
- ALANINE AMINOTRANSFERASE [6]: 38.33 u/L
- ALBUMIN [6]: 3.6 G/DL
- ALKALINE PHOSPHATASE [6]: 343.33 u/L
- ASPARTATE AMINOTRANSFERASE [6]: 60 u/L
- BLOOD UREA NITROGEN [6]: 12 mg/dL
- CHLORIDE [6]: 103 MEQ/L
- CHOLESTEROL [6]: 88.33 mg/dL
- CREATINE PHOSPHOKINASE [6]: 181.33 u/L
- CREATININE [6]: 0.4 mg/dL
- GLUCOSE [6]: 183.67 mg/dL
- PHOSPHORUS [6]: 13.1 mg/dL
- POTASSIUM [6]: 6.53 MEQ/L
- SODIUM [6]: 148.33 MEQ/L
- TOTAL BILIRUBIN [6]: 0.33 mg/dL
- TOTAL PROTEIN [6]: 5.93 G/DL
- BASOPHIL [7]: 0.47%
- EOSINOPHIL [7]: 0.23%
- ERYTHROCYTE COUNT [7]: 7.01 x10E6/uL
- HEMATOCRIT [7]: 45.3%
- HEMOGLOBIN [7]: 14.33 G/DL
- LEUKOCYTE COUNT [7]: 13.09 x10E3/uL
- LYMPHOCYTE [7]: 85.1%
- MEAN CORPUSCULAR HEMOGLOBIN [7]: 20.47 pg
- MEAN CORPUSCULAR HEMOGLOBIN CONCENTRATION [7]: 31.6 G/DL
- MEAN CORPUSCULAR VOLUME [7]: 64.6 fL
- MONOCYTE [7]: 2.03%
- NEUTROPHIL [7]: 11.33%
- PLATELET COUNT [7]: 977.33 x10E3/uL
- ALANINE AMINOTRANSFERASE [8]: 39.33 u/L
- ALBUMIN [8]: 3.63 G/DL
- ALKALINE PHOSPHATASE [8]: 300 u/L
- ASPARTATE AMINOTRANSFERASE [8]: 62.33 u/L
- BLOOD UREA NITROGEN [8]: 12.33 mg/dL
- CHLORIDE [8]: 101.67 MEQ/L
- CHOLESTEROL [8]: 84.33 mg/dL
- CREATINE PHOSPHOKINASE [8]: 173.33 u/L
- CREATININE [8]: 0.43 mg/dL
- GLUCOSE [8]: 173.33 mg/dL
- PHOSPHORUS [8]: 12.97 mg/dL
- POTASSIUM [8]: 6.93 MEQ/L
- SODIUM [8]: 149.33 MEQ/L
- TOTAL BILIRUBIN [8]: 0.5 mg/dL
- TOTAL PROTEIN [8]: 6.07 G/DL
- BASOPHIL [9]: 0.37%
- EOSINOPHIL [9]: 0.47%
- ERYTHROCYTE COUNT [9]: 6.77 x10E6/uL
- HEMATOCRIT [9]: 41.33%
- HEMOGLOBIN [9]: 12.93 G/DL
- LEUKOCYTE COUNT [9]: 11.64 x10E3/uL
- LYMPHOCYTE [9]: 80.13%
- MEAN CORPUSCULAR HEMOGLOBIN [9]: 19.13 pg
- MEAN CORPUSCULAR HEMOGLOBIN CONCENTRATION [9]: 31.33 G/DL
- MEAN CORPUSCULAR VOLUME [9]: 61.07 fL
- MONOCYTE [9]: 2.43%
- NEUTROPHIL [9]: 15.43%
- PLATELET COUNT [9]: 1395 x10E3/uL
- ALANINE AMINOTRANSFERASE [10]: 38.67 u/L
- ALBUMIN [10]: 3.43 G/DL
- ALKALINE PHOSPHATASE [10]: 312.67 u/L
- ASPARTATE AMINOTRANSFERASE [10]: 58.67 u/L
- BLOOD UREA NITROGEN [10]: 10.67 mg/dL
- CHLORIDE [10]: 103.33 MEQ/L
- CHOLESTEROL [10]: 75 mg/dL
- CREATINE PHOSPHOKINASE [10]: 168.33 u/L
- CREATININE [10]: 0.3 mg/dL
- GLUCOSE [10]: 187.33 mg/dL
- PHOSPHORUS [10]: 12.63 mg/dL
- POTASSIUM [10]: 7.03 MEQ/L
- SODIUM [10]: 147 MEQ/L
- TOTAL BILIRUBIN [10]: 0.27 mg/dL
- TOTAL PROTEIN [10]: 5.57 G/DL
- BASOPHIL [11]: 0.5%
- EOSINOPHIL [11]: 0.27%
- ERYTHROCYTE COUNT [11]: 7.05 x10E6/uL
- HEMATOCRIT [11]: 43.57%
- HEMOGLOBIN [11]: 13.87 G/DL
- LEUKOCYTE COUNT [11]: 16.09 x10E3/uL
- LYMPHOCYTE [11]: 87.33%
- MEAN CORPUSCULAR HEMOGLOBIN [11]: 19.67 pg
- MEAN CORPUSCULAR HEMOGLOBIN CONCENTRATION [11]: 31.8 G/DL
- MEAN CORPUSCULAR VOLUME [11]: 61.9 fL
- MONOCYTE [11]: 1.77%
- NEUTROPHIL [11]: 8.93%
- PLATELET COUNT [11]: 1151.33 x10E3/uL
- ALANINE AMINOTRANSFERASE [12]: 46 u/L
- ALBUMIN [12]: 3.5 G/DL
- ALKALINE PHOSPHATASE [12]: 413.67 u/L
- ASPARTATE AMINOTRANSFERASE [12]: 68 u/L
- BLOOD UREA NITROGEN [12]: 12 mg/dL
- CHLORIDE [12]: 102.33 MEQ/L
- CHOLESTEROL [12]: 85.67 mg/dL
- CREATINE PHOSPHOKINASE [12]: 209.67 u/L
- CREATININE [12]: 0.4 mg/dL
- GLUCOSE [12]: 184.33 mg/dL
- PHOSPHORUS [12]: 12.77 mg/dL
- POTASSIUM [12]: 6.53 MEQ/L
- SODIUM [12]: 148.67 MEQ/L
- TOTAL BILIRUBIN [12]: 0.4 mg/dL
- TOTAL PROTEIN [12]: 5.8 G/DL
